Non-standard residues stand in square brackets, D forms with d. Residues, ends and D or L forms follow the SMILES beside them. *: point of attachment. FITC = O=C1OC2(c3ccc(O)cc3Oc3cc(O)ccc32)c2ccc(NC(=S)*)cc21; Phe(4-Me) = Cc1ccc(C[C@H](N)C(=O)O)cc1
How the values were obtained:
Experiment in all cases: BRET binding of FITC-VPM-p15
Rluc-ADGRG2-ΔGPS-β V731A = biological target: T1, Rluc-ADGRG2-ΔGPS-β V731A (Mus musculus, UniProt Q8CJ12, V745A); settings: mutant V731A
T1 construct: the entire ECD (including the entire GPS motif) was removed (ADGRG2-ΔGPS-β); expressed in transfected cells; host or cells: HEK293
Method: (§1) The binding capacities of ADGRG2 WT or its mutants for VPM-p15 were determined by BRET assay, which has been used in previous studies ([27], [28], [29]). We fused the N terminus of ADGRG2 with a Rluc fragment and coupled FITC to the C terminus of VPM-p15 to facilitate BRET measurement. We stimulated the HEK293 cells transfected with Rluc-ADGRG2-ΔGPS-β wildtype (WT) or mutants by increasing the concentration of FITC-conjugated VPM-p15, and their binding abilities were determined by fitting the data with the saturation curves.
(§2) In the detection of binding capacities of ADGRG2 WT or its mutants for VPM-p15, HEK293 cells were transfected with Rluc-ADGRG2-ΔGPS-β or mutants. Transfected cells were stimulated by increasing the concentration of FITC-conjugated VPM-p15. Binding capacities were determined by BRET, EC50 values of ADGRG2 WT and its mutants for binding VPM-p15 were calculated by GraphPad, and data were normalized by EC50 of WT.

Rluc-ADGRG2-ΔGPS-β F772A = biological target: T2, Rluc-ADGRG2-ΔGPS-β F772A (Mus musculus, UniProt Q8CJ12, F786A); settings: mutant F772A
T2 construct: expressed in transfected cells; host or cells: HEK293
Method: as §1, §2

Rluc-ADGRG2-ΔGPS-β F838A = biological target: T3, Rluc-ADGRG2-ΔGPS-β F838A (Mus musculus, UniProt Q8CJ12, F852A); settings: mutant F838A
T3 construct: expressed in transfected cells; host or cells: HEK293
Method: as §1, §2

Rluc-ADGRG2-ΔGPS-β S760A = biological target: T4, Rluc-ADGRG2-ΔGPS-β S760A (Mus musculus, UniProt Q8CJ12, S774A); settings: mutant S760A
T4 construct: the entire ECD (including the entire GPS motif) was removed (ADGRG2-ΔGPS-β); expressed in transfected cells; host or cells: HEK293
Method: as §1, §2

Rluc-ADGRG2-ΔGPS-β T610A = biological target: T5, Rluc-ADGRG2-ΔGPS-β T610A (Mus musculus, UniProt Q8CJ12, T624A); settings: mutant T610A
T5 construct: the entire ECD (including the entire GPS motif) was removed (ADGRG2-ΔGPS-β); expressed in transfected cells; host or cells: HEK293
Method: as §1, §2

Rluc-ADGRG2-ΔGPS-β L665A = biological target: T6, Rluc-ADGRG2-ΔGPS-β L665A (Mus musculus, UniProt Q8CJ12, L679A); settings: mutant L665A
T6 construct: the entire ECD (including the entire GPS motif) was removed (ADGRG2-ΔGPS-β); expressed in transfected cells; host or cells: HEK293
Method: as §1, §2

Rluc-ADGRG2-ΔGPS-β N759A = biological target: T7, Rluc-ADGRG2-ΔGPS-β N759A (Mus musculus, UniProt Q8CJ12, N773A); settings: mutant N759A
T7 construct: the entire ECD (including the entire GPS motif) was removed (ADGRG2-ΔGPS-β); expressed in transfected cells; host or cells: HEK293
Method: as §1, §2

Rluc-ADGRG2-ΔGPS-β F829A = biological target: T8, Rluc-ADGRG2-ΔGPS-β F829A (Mus musculus, UniProt Q8CJ12, F843A); settings: mutant F829A
T8 construct: expressed in transfected cells; host or cells: HEK293
Method: as §1, §2

Rluc-ADGRG2-ΔGPS-β V774A = biological target: T9, Rluc-ADGRG2-ΔGPS-β V774A (Mus musculus, UniProt Q8CJ12, V788A); settings: mutant V774A
T9 construct: expressed in transfected cells; host or cells: HEK293
Method: as §1, §2

Rluc-ADGRG2-ΔGPS-β W662A = biological target: T10, Rluc-ADGRG2-ΔGPS-β W662A (Mus musculus, UniProt Q8CJ12, W676A); settings: mutant W662A
T10 construct: the entire ECD (including the entire GPS motif) was removed (ADGRG2-ΔGPS-β); expressed in transfected cells; host or cells: HEK293
Method: as §1, §2

Rluc-ADGRG2-ΔGPS-β V836A = biological target: T11, Rluc-ADGRG2-ΔGPS-β V836A (Mus musculus, UniProt Q8CJ12, V850A); settings: mutant V836A
T11 construct: expressed in transfected cells; host or cells: HEK293
Method: as §1, §2

Rluc-ADGRG2-ΔGPS-β V768A = biological target: T12, Rluc-ADGRG2-ΔGPS-β V768A (Mus musculus, UniProt Q8CJ12, V782A); settings: mutant V768A
T12 construct: the entire ECD (including the entire GPS motif) was removed (ADGRG2-ΔGPS-β); expressed in transfected cells; host or cells: HEK293
Method: as §1, §2

Rluc-ADGRG2-ΔGPS-β F671A = biological target: T13, Rluc-ADGRG2-ΔGPS-β F671A (Mus musculus, UniProt Q8CJ12, F685A); settings: mutant F671A
T13 construct: the entire ECD (including the entire GPS motif) was removed (ADGRG2-ΔGPS-β); expressed in transfected cells; host or cells: HEK293
Method: as §1, §2

Rluc-ADGRG2-ΔGPS-β I844A = biological target: T14, Rluc-ADGRG2-ΔGPS-β I844A (Mus musculus, UniProt Q8CJ12, I858A); settings: mutant I844A
T14 construct: expressed in transfected cells; host or cells: HEK293
Method: as §1, §2

Rluc-ADGRG2-ΔGPS-β WT = biological target: T15, Rluc-ADGRG2-ΔGPS-β WT (Mus musculus, UniProt Q8CJ12); settings: receptor WT
T15 construct: the entire ECD (including the entire GPS motif) was removed (ADGRG2-ΔGPS-β); expressed in transfected cells; host or cells: HEK293
Method: as §1, §2

Rluc-ADGRG2-ΔGPS-β I741A = biological target: T16, Rluc-ADGRG2-ΔGPS-β I741A (Mus musculus, UniProt Q8CJ12, I755A); settings: mutant I741A
T16 construct: the entire ECD (including the entire GPS motif) was removed (ADGRG2-ΔGPS-β); expressed in transfected cells; host or cells: HEK293
Method: as §1, §2

Rluc-ADGRG2-ΔGPS-β F747A = biological target: T17, Rluc-ADGRG2-ΔGPS-β F747A (Mus musculus, UniProt Q8CJ12, F761A); settings: mutant F747A
T17 construct: the entire ECD (including the entire GPS motif) was removed (ADGRG2-ΔGPS-β); expressed in transfected cells; host or cells: HEK293
Method: as §1, §2

Rluc-ADGRG2-ΔGPS-β I730A = biological target: T18, Rluc-ADGRG2-ΔGPS-β I730A (Mus musculus, UniProt Q8CJ12, I744A); settings: mutant I730A
T18 construct: the entire ECD (including the entire GPS motif) was removed (ADGRG2-ΔGPS-β); expressed in transfected cells; host or cells: HEK293
Method: as §1, §2

Rluc-ADGRG2-ΔGPS-β I663A = biological target: T19, Rluc-ADGRG2-ΔGPS-β I663A (Mus musculus, UniProt Q8CJ12, I677A); settings: mutant I663A
T19 construct: the entire ECD (including the entire GPS motif) was removed (ADGRG2-ΔGPS-β); expressed in transfected cells; host or cells: HEK293
Method: as §1, §2

[1] = Kd(mutated ADGRG2-ΔGPS-β)/Kd(WT)

T11 sequence (Q8CJ12 614-1009 V850A): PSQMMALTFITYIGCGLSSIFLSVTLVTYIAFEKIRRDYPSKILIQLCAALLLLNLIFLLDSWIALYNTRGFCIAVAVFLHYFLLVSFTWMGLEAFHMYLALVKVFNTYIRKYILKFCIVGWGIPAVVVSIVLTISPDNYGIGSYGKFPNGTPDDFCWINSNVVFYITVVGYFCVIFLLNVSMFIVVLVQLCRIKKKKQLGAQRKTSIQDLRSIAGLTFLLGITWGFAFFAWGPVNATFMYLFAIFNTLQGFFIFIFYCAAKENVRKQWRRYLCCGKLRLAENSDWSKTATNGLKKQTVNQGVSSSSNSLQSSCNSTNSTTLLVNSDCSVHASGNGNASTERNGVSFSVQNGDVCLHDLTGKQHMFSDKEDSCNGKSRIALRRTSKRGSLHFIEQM
T19 sequence (Q8CJ12 618-1009 I677A limits assumed): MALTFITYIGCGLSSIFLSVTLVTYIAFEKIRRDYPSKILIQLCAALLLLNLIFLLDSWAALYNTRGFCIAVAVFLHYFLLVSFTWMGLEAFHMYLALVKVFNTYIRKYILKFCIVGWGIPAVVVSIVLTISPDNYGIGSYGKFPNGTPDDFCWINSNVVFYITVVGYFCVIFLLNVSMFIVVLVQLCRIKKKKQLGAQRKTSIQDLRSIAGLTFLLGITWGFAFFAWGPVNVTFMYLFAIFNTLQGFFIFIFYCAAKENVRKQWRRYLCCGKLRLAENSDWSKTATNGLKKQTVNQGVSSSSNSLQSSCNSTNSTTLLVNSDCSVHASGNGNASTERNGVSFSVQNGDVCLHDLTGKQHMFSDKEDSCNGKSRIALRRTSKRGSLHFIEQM
T16 sequence (Q8CJ12 618-1009 I755A limits assumed): as the sequence (Q8CJ12 618-1009 I677A limits assumed) above, with A60I, I138A counted along it
T13 sequence (Q8CJ12 618-1009 F685A limits assumed): as the sequence (Q8CJ12 618-1009 I677A limits assumed) above, with A60I, F68A counted along it
T14 sequence (Q8CJ12 614-1009 I858A): as the sequence (Q8CJ12 614-1009 V850A) above, with A237V, I245A counted along it
T4 sequence (Q8CJ12 618-1009 S774A limits assumed): as the sequence (Q8CJ12 618-1009 I677A limits assumed) above, with A60I, S157A counted along it
T5 sequence (Q8CJ12 618-1009 T624A limits assumed): as the sequence (Q8CJ12 618-1009 I677A limits assumed) above, with T7A, A60I counted along it
T2 sequence (Q8CJ12 614-1009 F786A): as the sequence (Q8CJ12 614-1009 V850A) above, with F173A, A237V counted along it
T17 sequence (Q8CJ12 618-1009 F761A limits assumed): as the sequence (Q8CJ12 618-1009 I677A limits assumed) above, with A60I, F144A counted along it
T10 sequence (Q8CJ12 618-1009 W676A limits assumed): as the sequence (Q8CJ12 618-1009 I677A limits assumed) above, with W59A, A60I counted along it
T15 sequence (Q8CJ12 618-1009 limits assumed, stated change not applied): as the sequence (Q8CJ12 618-1009 I677A limits assumed) above, with A60I counted along it
T8 sequence (Q8CJ12 614-1009 F843A): as the sequence (Q8CJ12 614-1009 V850A) above, with F230A, A237V counted along it
T3 sequence (Q8CJ12 614-1009 F852A): as the sequence (Q8CJ12 614-1009 V850A) above, with A237V, F239A counted along it
T18 sequence (Q8CJ12 618-1009 I744A limits assumed): as the sequence (Q8CJ12 618-1009 I677A limits assumed) above, with A60I, I127A counted along it
T6 sequence (Q8CJ12 618-1009 L679A limits assumed): as the sequence (Q8CJ12 618-1009 I677A limits assumed) above, with A60I, L62A counted along it
T12 sequence (Q8CJ12 618-1009 V782A limits assumed): as the sequence (Q8CJ12 618-1009 I677A limits assumed) above, with A60I, V165A counted along it
T7 sequence (Q8CJ12 618-1009 N773A limits assumed): as the sequence (Q8CJ12 618-1009 I677A limits assumed) above, with A60I, N156A counted along it
T9 sequence (Q8CJ12 614-1009 V788A): as the sequence (Q8CJ12 614-1009 V850A) above, with V175A, A237V counted along it
T1 sequence (Q8CJ12 618-1009 V745A limits assumed): as the sequence (Q8CJ12 618-1009 I677A limits assumed) above, with A60I, V128A counted along it

SMILES: CC[C@H](C)[C@H](NC(=O)CNC(=O)[C@H](Cc1ccc(C)cc1)NC(=O)[C@H](CO)NC(=O)[C@@H](N)C(C)C)C(=O)N[C@@H](CC(C)C)C(=O)N[C@@H](CC(C)C)C(=O)N[C@@H](CC(=O)O)C(=O)N[C@@H](CC(C)C)C(=O)N[C@@H](CO)C(=O)N[C@@H](CCCNC(=N)N)C(=O)N[C@H](C(=O)N[C@@H](CO)C(=O)N[C@@H](CC(C)C)C(=O)N1CCC[C@H]1C(=O)N[C@@H](CCCCNC(=S)Nc1ccc2c(c1)C(=O)OC21c2ccc(O)cc2Oc2cc(O)ccc21)C(=O)O)[C@@H](C)O [FITC-VPM-p15] (H-VS[Phe(4-Me)]GILLDLSRTSLPK(FITC)-OH; N-terminus and C-terminus assumed)
- Bmax (Rluc-ADGRG2-ΔGPS-β V731A): 0.7903±0.018
- Fmut (Rluc-ADGRG2-ΔGPS-β F772A; [1]): 0.903
- Bmax (Rluc-ADGRG2-ΔGPS-β F772A; binding Bmax (BRET)): 0.795±0.021
- Fmut (Rluc-ADGRG2-ΔGPS-β F838A; [1]): 0.819
- Bmax (Rluc-ADGRG2-ΔGPS-β F838A; binding Bmax (BRET)): 0.793±0.022
- Fmut (Rluc-ADGRG2-ΔGPS-β S760A; [1]): 1.444
- Bmax (Rluc-ADGRG2-ΔGPS-β S760A; binding Bmax (BRET)): 0.716±0.011
- Fmut (Rluc-ADGRG2-ΔGPS-β T610A; [1]): 1.197
- Bmax (Rluc-ADGRG2-ΔGPS-β T610A; binding Bmax (BRET)): 0.8072±0.024
- Fmut (Rluc-ADGRG2-ΔGPS-β L665A; [1]): 0.850
- Bmax (Rluc-ADGRG2-ΔGPS-β L665A; binding Bmax (BRET)): 0.799±0.012
- Fmut (Rluc-ADGRG2-ΔGPS-β N759A; [1]): 1.655
- Bmax (Rluc-ADGRG2-ΔGPS-β N759A; binding Bmax (BRET)): 0.713±0.011
- Fmut (Rluc-ADGRG2-ΔGPS-β F829A; [1]): 0.344
- Bmax (Rluc-ADGRG2-ΔGPS-β F829A; binding Bmax (BRET)): 0.817±0.050
- Fmut (Rluc-ADGRG2-ΔGPS-β V774A; [1]): 1.149
- Bmax (Rluc-ADGRG2-ΔGPS-β V774A; binding Bmax (BRET)): 0.820±0.032
- Fmut (Rluc-ADGRG2-ΔGPS-β W662A; [1]): 1.128
- Bmax (Rluc-ADGRG2-ΔGPS-β W662A; binding Bmax (BRET)): 0.808±0.047
- Fmut (Rluc-ADGRG2-ΔGPS-β V836A; [1]): 1.315
- Bmax (Rluc-ADGRG2-ΔGPS-β V836A; binding Bmax (BRET)): 0.775±0.030
- Fmut (Rluc-ADGRG2-ΔGPS-β V768A; [1]): 1.112
- Bmax (Rluc-ADGRG2-ΔGPS-β V768A; binding Bmax (BRET)): 0.792±0.029
- Fmut (Rluc-ADGRG2-ΔGPS-β F671A; [1]): 0.940
- Bmax (Rluc-ADGRG2-ΔGPS-β F671A; binding Bmax (BRET)): 0.833±0.050
- Fmut (Rluc-ADGRG2-ΔGPS-β I844A; [1]): 1.640
- Bmax (Rluc-ADGRG2-ΔGPS-β I844A; binding Bmax (BRET)): 0.729±0.093
- Fmut (Rluc-ADGRG2-ΔGPS-β WT; [1]): 1.000
- Bmax (Rluc-ADGRG2-ΔGPS-β WT; binding Bmax (BRET)): 0.809±0.015
- Fmut (Rluc-ADGRG2-ΔGPS-β I741A; [1]): 0.715
- Bmax (Rluc-ADGRG2-ΔGPS-β I741A; binding Bmax (BRET)): 0.775±0.093
- Fmut (Rluc-ADGRG2-ΔGPS-β F747A; [1]): 0.811
- Bmax (Rluc-ADGRG2-ΔGPS-β F747A; binding Bmax (BRET)): 0.813±0.041
- Fmut (Rluc-ADGRG2-ΔGPS-β I730A; [1]): 1.281
- Bmax (Rluc-ADGRG2-ΔGPS-β I730A; binding Bmax (BRET)): 0.7950±0.031
- Fmut (Rluc-ADGRG2-ΔGPS-β I663A; [1]): 0.825
- Bmax (Rluc-ADGRG2-ΔGPS-β I663A; binding Bmax (BRET)): 0.814±0.043

Reference: article PMC7948503, “Optimization of a peptide ligand for the adhesion GPCR ADGRG2 provides a potent tool to explore receptor biology” (The Journal of Biological Chemistry, 2020)
